# Where “and” joins values, the source holds several entries; their conditions need not be identical. Identical values can stand only once.
# Key:
# [1] = system: Klebsiella 63; test: MIC, liquid medium test tube series dilution test; assay type: cell-based; details: Klebsiella 63, 24 hours, 37°C
# Summary of the method: (§1)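 Liquid-medium tube serial dilution in complete nutrient medium, read after 24 h incubation at 37°C. MIC is the lowest concentration giving a non-turbid tube, expressed in units/ml.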
# [2] = system: E. coli C 165; test: MIC, liquid medium test tube series dilution test; assay type: cell-based; details: E. coli C 165, 24 hours, 37°C
# Summary of the method: as §1
# [3] = system: E. coli 183/58; test: MIC, liquid medium test tube series dilution test; assay type: cell-based; details: E. coli 183/58, 24 hours, 37°C
# Summary of the method: as §1
# [4] = system: Streptoc. faec. ATCC 9790; test: MIC, liquid medium test tube series dilution test; assay type: cell-based; details: Strep. faec. (Enterococcus) ATCC 9790, 24 hours, 37°C
# Summary of the method: as §1
# [5] = system: E. coli 14; test: MIC, liquid medium test tube series dilution test; assay type: cell-based; details: E. coli 14, 24 hours, 37°C
# Summary of the method: as §1
# [6] = system: E. coli A 261; test: MIC, liquid medium test tube series dilution test; assay type: cell-based; details: E. coli A 261, 24 hours, 37°C
# Summary of the method: as §1
# [7] = system: Staph. aureus 133; test: Surviving mice after intraperitoneal infection and subcutaneous therapy; assay type: in vivo, white mice, CF1 strain; details: 2 × 200 units/mouse s.c.
# Protocol: The experiments on animals (see Table 3) were carried out with white mice of the CF1 strain. The infection took place intraperitoneally with the particular bacterium indicated.
# [8] = system: Proteus vulg. 1017; test: MIC, liquid medium test tube series dilution test; assay type: cell-based, Proteus vulgaris; details: Proteus vulg. 1017, 24 hours, 37°C
# Summary of the method: as §1
# [9] = system: Proteus vulg. 3400; test: MIC, liquid medium test tube series dilution test; assay type: cell-based, Proteus vulgaris; details: Proteus vulg. 3400, 24 hours, 37°C
# Summary of the method: as §1
# [10] = system: Psdm. aerug. Bonn; test: MIC, liquid medium test tube series dilution test; assay type: cell-based, Pseudomonas aerug.; details: 24 hours, 37°C
# Summary of the method: as §1
# [11] = system: Psdm. aerug. Walter; test: MIC, liquid medium test tube series dilution test; assay type: cell-based, Pseudomonas aerug.; details: 24 hours, 37°C
# Summary of the method: as §1
# [12] = system: Staph. aureus 1777 E; test: MIC, liquid medium test tube series dilution test; assay type: cell-based, Staphylococcus aureus; details: 24 hours, 37°C
# Summary of the method: as §1
# [13] = system: Staph. aureus 133; test: MIC, liquid medium test tube series dilution test; assay type: cell-based, Staphylococcus aureus; details: Staph. aureus 133, 24 hours, 37°C
# Summary of the method: as §1
# [14] = Acute toxicity (LD50), intravenous injection into the vein of the tail; assay type: in vivo; details: for LD50: mouse, in vivo, iv
# Text: Acute toxicity (LD50) in white mice after
# intravenous injection into the vein of the […]
# [15] = system: Klebsiella K 10; test: MIC, liquid medium test tube series dilution test; assay type: cell-based; details: Klebsiella K 10, 24 hours, 37°C
# Summary of the method: as §1
# [16] = system: Gram-negative and Gram-positive bacteria; test: Antibacterial effect, general statements; details: MIC comparison
# [17] = Serum level after subcutaneous administration, measured from microbiological activity against Proteus vulgaris 1017; assay type: in vivo, white mice
# Text: Serum level after subcutaneous ("s.c.") administration to white mice, in units/ml of serum, measured from the microbiological activity against Proteus vulgaris 1017 (ampicillin-resistant).
# [18] = i.v. into tail vein, white mice
Structure (SMILES),MIC [1],MIC [2],MIC [3],MIC [4],MIC [5],MIC [6],MIC [8],MIC [9],MIC [10],MIC [11],MIC [12],MIC [13],MIC [15],further results
"CN(C(=O)N[C@@H](C(=O)N[C@@H]1C(=O)N2[C@@H]1SC(C)(C)[C@@H]2C(=O)O)c1ccccc1)C(=O)C1CC=CCC1 (single isomer, unassigned) [Example 65, Sodium D(-)-α-(3-(1,2,5,6)-tetrahydrobenzoyl-3-methyl-ureido)benzylpenicillin]",12.5 units/ml,3.12 units/ml,1.56 units/ml,50 units/ml,< 0.78 units/ml,400 units/ml,3.12 units/ml,6.25 units/ml,12.5 units/ml,12.5 units/ml,50 units/ml,< 0.78 units/ml,–,Number of surviving mice ([7]; 1 day): 90%; Number of surviving mice ([7]; 2 days): 80%; Number of surviving mice ([7]; 3 days): 70%; Number of surviving mice ([7]; 5 days): 70%
"Cc1onc(-c2c(Cl)cccc2Cl)c1C(=O)N[C@@H]1C(=O)N2[C@@H]1SC(C)(C)[C@@H]2C(=O)O [Dicycloxacillin, reference compound]",–,–,–,–,–,–,–,–,–,–,–,–,–,"Acute toxicity (LD50) [14, 18]: 900 mg/kg"
"C=CCOC(=O)N(C)C(=O)N[C@@H](C(=O)N[C@@H]1C(=O)N2[C@@H]1SC(C)(C)[C@@H]2C(=O)O)c1ccccc1 [Example 30, Sodium D(-)-α-(3-allyloxycarbonyl-3-methyl-ureido)-benzylpenicillin]",20-100 units/ml and 100-500 units/ml,20-100 units/ml,20-100 units/ml,20-100 units/ml,4-20 units/ml,> 500 units/ml,100-500 units/ml,100-500 units/ml and 20-100 units/ml,100-500 units/ml,100-500 units/ml,–,0.8-4 units/ml,20-100 units/ml and 100-500 units/ml,MIC ([2]; listed as (A) of Example 30): 4-20 units/ml; MIC ([3]; listed as (A) of Example 30): 4-20 units/ml; MIC ([5]; listed as (A) of Example 30): 0.8-4 units/ml; MIC ([6]; listed as (A) of Example 30): 100-500 units/ml; Biological activity compared between penicillin (A) and penicillin (B) [16]: identical within the limit of error; MIC ([8]; listed as (A) of Example 30): 20-100 units/ml; MIC ([10]; listed as (A) of Example 30): 4-20 units/ml; MIC ([11]; listed as (A) of Example 30): 20-100 units/ml; MIC ([13]; listed as (A) of Example 30): 0.8-4 units/ml
"CCN(C(=O)N[C@@H](C(=O)N[C@@H]1C(=O)N2[C@@H]1SC(C)(C)[C@@H]2C(=O)O)c1ccccc1)C(=O)c1ccccc1 [Example 60, Sodium D(-)-α-(3-benzoyl-3-ethyl-ureido)-benzylpenicillin]",50 units/ml,25 units/ml,12.5 units/ml,100 units/ml,6.25 units/ml,> 400 units/ml,25 units/ml,50 units/ml,25 units/ml,50 units/ml,50 units/ml,< 0.78 units/ml,100 units/ml,"LD50 [14, 18]: 1500 mg/kg"
"CN(C(=O)CCCl)C(=O)N[C@@H](C(=O)N[C@@H]1C(=O)N2[C@@H]1SC(C)(C)[C@@H]2C(=O)O)c1ccccc1 [Example 64, Sodium D(-)-α-(3-β -chloropropionyl-3-methyl-ureido)-benzylpenicillin]",100 units/ml,25 units/ml,25 units/ml,100 units/ml,3.12 units/ml,> 400 units/ml,25 units/ml,100 units/ml,25 units/ml,50 units/ml,50 units/ml,1.56 units/ml,100 units/ml,"Serum level ([17]; 50.000 units s.c., 10 mins.): 50 units/ml of serum; Serum level ([17]; 50.000 units s.c., 20 mins.): 10 units/ml of serum; Serum level ([17]; 150.000 units s.c., 15 mins.): 42 units/ml of serum; Serum level ([17]; 150.000 units s.c., 30 mins.): 26 units/ml of serum; Serum level ([17]; 150.000 units s.c., 60 mins.): < 10 units/ml of serum"
"CN(C(=O)N[C@@H](C(=O)N[C@@H]1C(=O)N2[C@@H]1SC(C)(C)[C@@H]2C(=O)O)c1ccccc1)C(=O)c1cccs1 [Example 75, Sodium D(-)-α-(3-thenoyl-(2)-3-methyl-ureido)-benzylpenicillin]",–,–,–,–,< 0.8 units/ml,–,–,–,–,–,–,0.8 units/ml,–,LD50 [14]: 1500 mg/kg
"C=CCN(C(C)=O)C(=O)N[C@@H](C(=O)N[C@@H]1C(=O)N2[C@@H]1SC(C)(C)[C@@H]2C(=O)O)c1ccccc1 [Example 86, Sodium D(-)-α-(3-acetyl-3-allyl-ureido)-benzylpenicillin]",50 units/ml,25 units/ml,50 units/ml,100 units/ml,12.5 units/ml,> 400 units/ml,50 units/ml,50 units/ml,25 units/ml,50 units/ml,–,< 0.78 units/ml,100 units/ml,"LD50 [14, 18]: > 3000 mg/kg"
"CN(C)C(=O)N(C)C(=O)N[C@@H](C(=O)N[C@@H]1C(=O)N2[C@@H]1SC(C)(C)[C@@H]2C(=O)O)c1ccccc1 [Example 94, Sodium D(-)-α-(3-dimethylaminocarbonyl-3-methyl-ureido)benzylpenicillin]",200 units/ml,50 units/ml,100 units/ml,200 units/ml,12.5 units/ml,> 400 units/ml,100 units/ml,50 units/ml,100 units/ml,100 units/ml,–,3.12 units/ml,200 units/ml,LD50 [14]: 4000 mg/kg
"CC1(C)S[C@@H]2[C@H](NC(=O)[C@H](NC(=O)N3CCNC3=O)c3ccccc3)C(=O)N2[C@H]1C(=O)O [Example 144 A, D(-)-α-(Imidazolidin-2-on-1-yl-carbonylamino)-benzyl-penicillin]",–,–,–,–,–,–,–,–,–,–,–,–,50 units/ml,MIC ([1]; listed as 144): 50 units/ml; MIC ([2]; listed as 144): 6.25 units/ml; MIC ([3]; listed as 144): 50 units/ml; MIC ([4]; listed as 144): 25 units/ml; MIC ([5]; listed as 144): 1.56 units/ml; MIC ([6]; listed as 144): 400 units/ml; MIC ([8]; listed as 144): 12 units/ml; MIC ([9]; listed as 144): 25 units/ml; MIC ([10]; listed as 144): 6.25 units/ml; MIC ([11]; listed as 144): 12.5 units/ml; MIC ([12]; listed as 144): 200 units/ml; MIC ([13]; listed as 144): < 0.8 units/ml
CC1(C)S[C@@H]2[C@H](NC(=O)[C@H](NC(=O)N3CCNC3=S)c3ccccc3)C(=O)N2[C@H]1C(=O)O [Example 147 A],100 units/ml,50 units/ml,100 units/ml,50 units/ml,12.5 units/ml,> 400 units/ml,50 units/ml,50 units/ml,25 units/ml,200 units/ml,100 units/ml,< 0.8 units/ml,200 units/ml,MIC ([9]; listed as 147 A): 200 units/ml
